Results on seven molecules are retold here after ChEMBL document CHEMBL4610067, “Molecular Networking Reveals Serpentinine-Related Bisindole Alkaloids from Picralima nitida, a Previously Well-Investigated Species” (J Nat Prod, 2020).

One experiment relates to MRC5. Description: Growth inhibition of human MRC5 cells after 72 hrs by resazurin dye based spectrophotometric method assay. The format is cell-based. Particulars: MRC5, 72 h.
A further experiment concerns Plasmodium falciparum. Description: Antimalarial activity against chloroquine-resistant Plasmodium falciparum FcB1/Columbia infected in human erythrocytes assessed as reduction in [3H]-hypoxanthine incorporation pretreated for 24 hrs followed by [3H]-hypoxanthine addition measured after 24 hrs by liquid scintillation counting method. Format: functional, organism-based.

Turning to `C/C=C1/CN2CCc3c([nH]c4ccccc34)[C@@H]2C[C@@H]1[C@H](Cc1c[n+]2c(c3[nH]c4ccccc4c13)C[C@@H]1C(C(=O)OC)=CO[C@@H](C)[C@@H]1C2)C(=O)OC`, the IC50 is above 50 µM in the experiment on MRC5 and 2.6 µM with Plasmodium falciparum. The corresponding values for `C/C=C1/CN2CCc3c([nH]c4ccccc34)[C@@H]2C[C@@H]1[C@H](Cc1c[n+]2c(c3[nH]c4ccccc4c13)C[C@H](CCO)[C@@H](CC)C2)C(=O)OC` are above 50 µM and 8.7 µM. On to `C/C=C1/C[n+]2cc(C[C@H](C(=O)OC)[C@H]3C[C@H]4c5[nH]c6ccccc6c5CCN4C/C3=C/C)c3c([nH]c4ccccc43)c2C[C@@H]1CCO`, for which the results for the IC50 with MRC5 and in the experiment on Plasmodium falciparum were above 50 µM and 9.5 µM, respectively. Consider `C/C=C1/CN2CCc3c([nH]c4ccccc34)[C@@H]2C[C@@H]1[C@H](Cc1c[n+]2c(c3[nH]c4ccccc4c13)C[C@@H]1C(C(=O)OC)=CO[C@@H](C)[C@@H]1C2)C(=O)O`, for which the figures for the half-inhibitory concentration (IC50) in the experiment on MRC5 and in the experiment on Plasmodium falciparum were above 50 µM and 5.2 µM, respectively. Regarding `COC(=O)CCc1c[n+]2c(c3[nH]c4ccccc4c13)C[C@@H]1C(C(=O)OC)=CO[C@@H](C)[C@@H]1C2`, the half-inhibitory concentration (IC50) in the experiment on Plasmodium falciparum amounted to 3 µM.

With `C/C=C1/CN2CCc3c([nH]c4ccc(O)cc34)[C@@H]2C[C@@H]1CCO`, the figures for the IC50 in the experiment with MRC5 and with Plasmodium falciparum were above 50 µM and 99 µM, respectively. Regarding `C/C=C1/C[n+]2ccc3c([nH]c4ccccc43)c2C[C@@H]1CCO`, the IC50 in the experiment with MRC5 was above 50 µM; with Plasmodium falciparum, 19.5 µM.
